Results filed as inconclusive are left out.

Experimental findings from PubChem BioAssay AID1597 (NINDS Approved Drug Screening Program, 2009) are described below.

The assay relates to Drosophila SCA1 polyglutamine model, toxicity suppression. Put plainly: Reduction of SCA1 polyglutamine toxicity, EC50 from dose response in whole drosophila (AID 1597).
In general, EC50 refers to the midpoint of the concentration-response curve. Consider `OCC(S)CS` (centres undefined), for which the EC50 was 300 nM.
The figure for `CC(=O)OCC(=O)[C@H]1CCC2C3CCC4=CC(=O)CC[C@]4(C)C3CC[C@@]21C` (some centres undefined) is 3000 nM; for `C[N+](C)(C)CCOC(N)=O` it is 3000 nM; for `C=C1C2CC[C@H]3[C@]4(C)C[C@H](OC5OC(CO)C(OS(=O)(=O)O)C(OS(=O)(=O)O)C5OC(=O)CC(C)C)C[C@@H](C(=O)O)[C@H]4CC[C@]3(C2)[C@H]1O` (some centres undefined) it is 225 nM.
For `C[N+](C)(C)CC(=O)[O-]` the value was 3000 nM; for `Cc1cc(C(C)(C)C)cc(C)c1CC1=NCCN1`, 250 nM.
For `N#C/C(=C\c1ccc(O)cc1)C(=O)O` the value was 50 nM; for `CC(N)CCCC(C)(C)O` (centres undefined), 50 nM.
Consider `C[C@@H]1O[C@@H](O[C@H]2[C@H](Oc3cc(O)c4c(c3)O[C@H](c3ccc(O)cc3)CC4=O)O[C@H](CO)[C@@H](O)[C@@H]2O)[C@H](O)[C@H](O)[C@H]1O`, for which the EC50 is 5000 nM.
For `C[C@@H]1CC2C3CCC4=CC(=O)C=C[C@]4(C)[C@@]3(F)[C@@H](O)C[C@]2(C)[C@@]1(O)C(=O)COP(=O)(O)O` (some centres undefined) the value was 750 nM; for `NS(=O)(=O)c1cc(C2(O)NC(=O)c3ccccc32)ccc1Cl` (centres undefined), 5000 nM; for `NC(Cc1cc(I)c(Oc2ccc(O)c(I)c2)c(I)c1)C(=O)O` (centres undefined), 5000 nM.
For `CCCCCCCCCCCCCCCC(=O)OC/C=C(C)/C=C/C=C(C)/C=C/C1=C(C)CCCC1(C)C` the value was 275 nM; for `CN1CCOC(c2ccccc2)c2ccccc2C1` (centres undefined), 50 nM.
